Test results published in PMC3851289 (Molecular cell, 2013).

Target: VprBP (Homo sapiens, UniProt Q9Y4B6)
Assay: in vitro kinase assay with recombinant VprBP and H2A
Assay type: biochemical

Sequence of VprBP (Q9Y4B6 whole entry): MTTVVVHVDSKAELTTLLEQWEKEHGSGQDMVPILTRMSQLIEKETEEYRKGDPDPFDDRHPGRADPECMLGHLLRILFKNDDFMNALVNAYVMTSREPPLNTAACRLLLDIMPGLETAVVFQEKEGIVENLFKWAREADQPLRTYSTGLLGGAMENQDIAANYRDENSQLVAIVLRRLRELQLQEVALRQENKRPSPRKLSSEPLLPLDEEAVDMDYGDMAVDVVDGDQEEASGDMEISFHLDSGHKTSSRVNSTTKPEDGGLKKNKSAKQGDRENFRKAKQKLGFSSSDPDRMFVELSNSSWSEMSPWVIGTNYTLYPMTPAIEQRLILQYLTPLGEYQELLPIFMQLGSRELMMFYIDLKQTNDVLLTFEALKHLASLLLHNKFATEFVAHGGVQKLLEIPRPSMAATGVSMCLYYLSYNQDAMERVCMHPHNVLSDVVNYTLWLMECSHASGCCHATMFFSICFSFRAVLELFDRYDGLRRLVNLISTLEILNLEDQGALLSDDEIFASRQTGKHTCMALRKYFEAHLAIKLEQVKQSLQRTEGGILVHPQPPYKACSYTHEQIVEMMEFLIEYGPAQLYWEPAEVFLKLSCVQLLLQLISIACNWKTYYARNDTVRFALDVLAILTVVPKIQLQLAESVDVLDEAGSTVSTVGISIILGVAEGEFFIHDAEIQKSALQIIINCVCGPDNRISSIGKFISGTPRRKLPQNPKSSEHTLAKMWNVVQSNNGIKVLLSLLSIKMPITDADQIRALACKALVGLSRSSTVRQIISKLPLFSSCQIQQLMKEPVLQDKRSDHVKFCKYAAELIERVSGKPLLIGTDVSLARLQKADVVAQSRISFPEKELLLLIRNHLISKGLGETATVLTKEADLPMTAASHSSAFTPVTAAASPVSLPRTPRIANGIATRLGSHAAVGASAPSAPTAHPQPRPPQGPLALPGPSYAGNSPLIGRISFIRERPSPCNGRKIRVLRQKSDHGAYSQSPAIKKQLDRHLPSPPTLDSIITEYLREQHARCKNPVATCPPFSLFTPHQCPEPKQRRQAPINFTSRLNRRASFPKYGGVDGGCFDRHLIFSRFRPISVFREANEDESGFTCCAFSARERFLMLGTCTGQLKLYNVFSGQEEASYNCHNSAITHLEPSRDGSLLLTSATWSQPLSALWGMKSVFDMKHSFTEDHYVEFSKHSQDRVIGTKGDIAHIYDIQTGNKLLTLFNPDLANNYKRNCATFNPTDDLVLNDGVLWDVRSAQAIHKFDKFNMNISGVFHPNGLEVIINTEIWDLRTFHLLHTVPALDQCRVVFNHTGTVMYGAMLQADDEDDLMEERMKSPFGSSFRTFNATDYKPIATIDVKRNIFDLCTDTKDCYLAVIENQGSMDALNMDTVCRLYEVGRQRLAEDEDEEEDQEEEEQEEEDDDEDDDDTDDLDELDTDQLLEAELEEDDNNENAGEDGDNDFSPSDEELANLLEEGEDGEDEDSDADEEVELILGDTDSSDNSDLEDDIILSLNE

IC50: 600 nM
Substance: B32B3
